What was measured:
[1] = system: periosteal progenitor cells isolated from autograft periosteum; assay: Osteogenic differentiation of periosteal progenitor cells, BMP-2 in combination with TGF-β inhibitor; assay type: cell-based
Description: To test the potential reciprocal regulation of both BMP and TGF-β signaling in repair, periosteal progenitor cells were isolated from autograft periosteum (Wang, et al. (2010) Am. J. Pathol., 177:3100-3111; Huang, et al. (2014) Mol. Ther., 22:430-439; Huang, et al. (2014) PLoS One, 9:e100079). The osteogenic differentiation of BMP-2 ([…]) in combination with TGF-β inhibitors was examined. Corilagin (1 μm) potentiated the effects of BMP-2 on osteoblastic differentiation as evidenced by increased alkaline phosphatase (ALP) staining and enhanced expression of ALP and osterix (Osx) in 10-day cultures (FIG. 7).

[2] = molecular target: T1, Tgfbrl/ALK5 kinase (Homo sapiens, UniProt P36897); settings: cited from earlier work
T1 sequence (P36897 34-503): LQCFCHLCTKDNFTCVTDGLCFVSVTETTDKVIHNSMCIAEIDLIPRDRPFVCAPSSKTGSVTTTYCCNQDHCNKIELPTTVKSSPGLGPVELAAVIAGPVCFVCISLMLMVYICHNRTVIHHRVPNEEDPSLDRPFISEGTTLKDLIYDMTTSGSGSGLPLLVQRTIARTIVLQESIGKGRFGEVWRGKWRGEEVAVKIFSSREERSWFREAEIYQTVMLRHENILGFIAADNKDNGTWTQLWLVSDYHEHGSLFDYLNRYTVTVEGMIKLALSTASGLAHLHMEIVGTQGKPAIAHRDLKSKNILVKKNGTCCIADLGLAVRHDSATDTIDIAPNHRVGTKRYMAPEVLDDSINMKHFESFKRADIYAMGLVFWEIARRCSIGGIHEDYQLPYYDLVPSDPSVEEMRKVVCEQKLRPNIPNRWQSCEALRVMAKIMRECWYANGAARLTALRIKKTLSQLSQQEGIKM

[3] = molecular target: T2, BMP type I receptor ALK2 (Homo sapiens, UniProt Q04771); settings: cited from earlier work
T2 sequence (Q04771 21-509): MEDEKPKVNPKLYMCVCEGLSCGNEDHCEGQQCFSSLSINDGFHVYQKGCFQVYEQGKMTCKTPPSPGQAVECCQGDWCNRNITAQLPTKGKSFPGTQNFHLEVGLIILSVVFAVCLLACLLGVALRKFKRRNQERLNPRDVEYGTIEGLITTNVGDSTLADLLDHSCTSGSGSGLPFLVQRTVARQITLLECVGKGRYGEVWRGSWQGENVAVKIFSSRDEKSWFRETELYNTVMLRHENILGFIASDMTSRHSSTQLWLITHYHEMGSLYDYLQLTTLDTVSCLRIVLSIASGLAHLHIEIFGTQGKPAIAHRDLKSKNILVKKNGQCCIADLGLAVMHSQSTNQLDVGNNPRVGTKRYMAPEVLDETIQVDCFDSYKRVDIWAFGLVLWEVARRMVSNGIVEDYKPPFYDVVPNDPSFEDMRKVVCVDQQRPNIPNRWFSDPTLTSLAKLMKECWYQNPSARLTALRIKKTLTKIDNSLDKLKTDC

[4] = molecular target: BMP type I receptor ALK3 (Homo sapiens, UniProt P36894); settings: cited from earlier work
Sequence of BMP type I receptor ALK3 (P36894 24-532): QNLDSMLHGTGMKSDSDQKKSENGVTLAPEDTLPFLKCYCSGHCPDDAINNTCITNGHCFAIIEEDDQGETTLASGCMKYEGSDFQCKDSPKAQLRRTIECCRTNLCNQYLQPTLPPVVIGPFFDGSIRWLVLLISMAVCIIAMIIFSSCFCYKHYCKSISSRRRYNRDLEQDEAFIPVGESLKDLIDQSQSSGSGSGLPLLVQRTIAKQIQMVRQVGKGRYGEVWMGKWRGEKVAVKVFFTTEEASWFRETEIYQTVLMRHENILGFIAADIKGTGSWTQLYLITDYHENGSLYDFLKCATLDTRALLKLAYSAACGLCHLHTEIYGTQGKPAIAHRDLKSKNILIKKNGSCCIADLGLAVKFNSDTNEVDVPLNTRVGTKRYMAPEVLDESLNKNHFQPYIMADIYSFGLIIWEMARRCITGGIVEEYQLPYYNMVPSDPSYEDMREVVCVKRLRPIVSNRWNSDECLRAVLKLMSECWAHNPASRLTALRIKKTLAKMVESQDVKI

[5] = molecular target: BMP type I receptor ALK6 (Homo sapiens, UniProt O00238); settings: cited from earlier work
Sequence of BMP type I receptor ALK6 (O00238 14-502): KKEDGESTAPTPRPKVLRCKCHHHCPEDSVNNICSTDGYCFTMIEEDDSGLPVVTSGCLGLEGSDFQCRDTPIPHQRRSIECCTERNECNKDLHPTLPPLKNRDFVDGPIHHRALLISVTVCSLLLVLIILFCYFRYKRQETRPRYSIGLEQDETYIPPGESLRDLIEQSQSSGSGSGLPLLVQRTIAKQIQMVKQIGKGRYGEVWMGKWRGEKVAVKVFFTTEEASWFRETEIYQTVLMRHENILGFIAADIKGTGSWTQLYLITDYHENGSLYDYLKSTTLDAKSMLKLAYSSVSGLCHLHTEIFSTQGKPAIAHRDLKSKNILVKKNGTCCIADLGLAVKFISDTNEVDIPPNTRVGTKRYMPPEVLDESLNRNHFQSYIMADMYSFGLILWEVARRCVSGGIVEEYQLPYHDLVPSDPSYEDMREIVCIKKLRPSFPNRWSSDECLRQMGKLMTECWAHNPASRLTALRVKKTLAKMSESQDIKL

[6] = system: TGF-β-dependent epithelial-mesenchymal transition (EMT); settings: cited from earlier work
[7] = system: fibrosis in lung; settings: mouse model; cited from earlier work
[8] = system: normal cells and tissues; settings: cited from earlier work
[9] = BMP-2 peptide loading and in vitro release from electrospray-coated bone allografts; assay type: physicochemical; settings: from PLGA 50:50 coated allograft, during the first 4 weeks
Description: For quantification of peptide loading and release kinetics, 5 mg FITC labeled BMP-2 peptide was dispersed in 5% (w/v) of PLGA in DCM in glass vials and used for electrospray-mediated allograft coating. The amount of BMP-2 peptide loaded per graft was calculated from the difference in the weights of the bone samples before and after electrospray coating as well as accounting for the polymer:peptide ratio of 50:1 (Boda, et al. (2019) Acta Biomater., 85:282-93). The duration of the electrospray coating was adjusted to achieve an increase of 2-3 mg in the weights of the electrospray coated bone samples as compared to the corresponding uncoated ones. The FITC-labeled peptide release from the bone allograft was recorded by measuring the fluorescence intensities of the buffer aliquots at regular intervals using excitation and emission filters of 485 and 528 nm, respectively.
Similarly, to measure the peptide loading and release kinetics from PCL-gelatin coated allografts, the PCL-gelatin HFIP solution containing 5 mg FITC labeled BMP-2 peptide was used for coating. PCL-Gelatin (2.5 wt % each) and 5 mg of BMP-2 peptide were mixed by ultrasonication. […] The peptide release from the PCL-gelatin bone allograft was recorded by measuring the fluorescence intensities of the buffer aliquots at regular intervals (Boda, et al. (2019) Acta Biomater., 85:282-93). […]

[10] = system: receptors of BMPs; settings: cited from earlier work
[11] = Corilagin (1 μm) with BMP-2 (50 μg/ml), 10-day cultures

Compound	alkaline phosphatase (ALP) staining [1, 11]	effects of BMP-2 on osteoblastic differentiation [1, 11]	expression of ALP [1, 11]	expression of osterix (Osx) [1, 11]	synergism with BMP-2 ([1]; FIG. 7, ALP and Osx expression after 10 days)	Tgfbrl/ALK5 kinase activity [2]	inhibition of BMP type I receptor ALK2 [3]	inhibition of BMP type I receptor ALK3 [4]	inhibition of BMP type I receptor ALK6 [5]	TGF-β-dependent epithelial-mesenchymal transition (EMT) [6]	fibrosis in lung [7]	toxicity toward normal cells and tissues [8]	loaded peptide released [9]	binding and activation of the receptors of BMPs [10]
O=C(O[C@@H]1O[C@@H]2COC(=O)c3cc(O)c(O)c(O)c3-c3c(cc(O)c(O)c3O)C(=O)O[C@H]([C@H]1O)[C@@H]2O)c1cc(O)c(O)c(O)c1 [Corilagin]	increased	potentiated	enhanced	enhanced	strong synergism	strongly inhibits	without inhibiting	without inhibiting	without inhibiting	inhibits	attenuates	low level		
KIPKASSVPTELSAISTLYL (BMP-2 peptide) [short-chain BMP-2 mimetic peptide (Genscript)]													Nearly all	binds and activates
